Measurements taken from patent US20230021483A1, “[…] […] METHOD AND CLASSIFICATION OF PHARMACEUTICAL COMPONENTS BY USING TRANSCRIPTOMES” (National Institutes of Biomedical Innovation, Health and …, priority 2016, published 2023).
Where “and” joins values, the source holds several entries; their conditions need not be identical. Identical values can stand only once.

Test system: preferentially upregulated genes in LV, SP, LN
Experiment: Z-score-based differential gene expression analysis (adjuvant group- or adjuvant-associated genes, 40 module mapping, TargetMine annotation)
Format: in vivo, C57BL/6 mice
Conditions: ID
How it was run: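 Gene groups for each organ were built from combined z-score cutoffs across adjuvants, ranging from z>1 to z>3. Scores came from fold changes standardized per gene over the whole organ data set, with the three replicate z-scores added per adjuvant; sums above 3 marked preferential expression.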

Nc1nc2c(ncn2[C@@H]2O[C@@H]3COP(=O)(O)O[C@H]4[C@@H](O)[C@H](n5cnc6c(=O)[nH]c(N)nc65)O[C@@H]4COP(=O)(O)O[C@H]3[C@H]2O)c(=O)[nH]1 [cdiGMP, Cyclic diguanylate monophosphate]
z-score of fold change, 1423028_at Ifna2 (LN, samples x1-x3, Modules 29): 1.076 and 1.31 and 1.58
z-score of fold change, 1425837_a_at Ccrn4l (LN, samples x1-x3, Modules 29): 1.34 and 1.091 and 1.529
z-score of fold change, 1436387_at C330006P03Rik///Homer1 (LN, samples x1-x3, Modules 29): 1.372 and 1.437 and 1.158
z-score of fold change, 1439349_at Sbno2 (LN, samples x1-x3, Modules 29): 1.367 and 1.407 and 1.166
z-score of fold change, 1444010_at Eif4e (LN, samples x1-x3, Modules 29): 1.659 and 1.049 and 1.227
z-score of fold change, 1448325_at Ppp1r15a (LN, samples x1-x3, Modules 29): 1.314 and 1.203 and 1.441
z-score of fold change, 1449311_at Bach1 (LN, samples x1-x3, Modules 29): 1.178 and 1.558 and 1.189
z-score of fold change, 1450297_at Il6 (LN, samples x1-x3, Modules 29): 1.437 and 0.989 and 1.53
z-score of fold change, 1455197_at Rnd1 (LN, samples x1-x3, Modules 29): 1.54 and 1.27 and 1.166
z-score of fold change, 1455899_x_at Socs3 (LN, samples x1-x3, Modules 29): 1.206 and 1.544 and 1.18
z-score of fold change, 1417252_at Ptgs2 (LN, samples x1-x3, Modules 34): 1.507 and 1.214 and 1.232
z-score of fold change, 1417263_at Ptgs2 (LN, samples x1-x3, Modules 34): 1.51 and 0.965 and 1.47
z-score of fold change, 1419132_at Tlr2 (LN, samples x1-x3, Modules 34): 1.576 and 1.128 and 1.246
z-score of fold change, 1421473_at Il1a (LN, samples x1-x3, Modules 34): 1.525 and 1.178 and 1.257
z-score of fold change, 1439981_at Tespa1 (LN, samples x1-x3, Modules 35): 1.343 and 1.427 and 1.18
z-score of fold change, 1441843_s_at 5230400M03Rik (LN, samples x1-x3, Modules 35): 1.442 and 1.354 and 1.171
z-score of fold change, 1442556_at --- (LN, samples x1-x3, Modules 35): 1.421 and 1.315 and 1.245
z-score of fold change, 1443414_at C78513 (LN, samples x1-x3, Modules 35): 1.402 and 0.963 and 1.557
z-score of fold change, 1444598_at --- (LN, samples x1-x3, Modules 35): 1.559 and 1.318 and 1.053
z-score of fold change, 1445534_at --- (LN, samples x1-x3, Modules 35): 1.345 and 1.515 and 1.078
z-score of fold change, 1446245_at --- (LN, samples x1-x3, Modules 35): 1.239 and 1.22 and 1.46
z-score of fold change, 1457944_at --- (LN, samples x1-x3, Modules 35): 1.366 and 1.428 and 1.146
z-score of fold change, 1458376_at B930025B16Rik (LN, samples x1-x3, Modules 35): 1.188 and 1.502 and 1.273
z-score of fold change, 1459144_at --- (LN, samples x1-x3, Modules 35): 1.275 and 1.199 and 1.493
z-score of fold change, 1425687_at Cflar (LN, samples x1-x3, Modules 36): 1.199 and 1.3 and 1.469
z-score of fold change, 1427736_a_at Ccrl2 (LN, samples x1-x3, Modules 36): 1.328 and 1.075 and 1.554
z-score of fold change, 1449169_at Has2 (LN, samples x1-x3, Modules 36): 1.306 and 1.158 and 1.458
z-score of fold change, 1453636_at Pcgf5 (LN, samples x1-x3, Modules 36): 1.332 and 1.143 and 1.496
z-score of fold change, 1457888_at --- (LN, samples x1-x3, Modules 36): 1.466 and 1.08 and 1.38
z-score of fold change, 1419508_at Ripk1 (LN, samples x1-x3, Modules 37): 1.035 and 1.437 and 1.467
z-score of fold change, 1421578_at Ccl4 (LN, samples x1-x3, Modules 37): 1.402 and 1.22 and 1.368
z-score of fold change, 1421679_a_at Cdkn1a (LN, samples x1-x3, Modules 37): 1.429 and 1.421 and 1.13
z-score of fold change, 1424638_at Cdkn1a (LN, samples x1-x3, Modules 37): 1.624 and 1.232 and 1.074
z-score of fold change, 1433508_at Klf6 (LN, samples x1-x3, Modules 37): 1.271 and 1.413 and 1.263
z-score of fold change, 1434350_at Csrnp1 (LN, samples x1-x3, Modules 37): 1.353 and 1.305 and 1.308
z-score of fold change, 1439680_at Tnfsf10 (LN, samples x1-x3, Modules 37): 1.169 and 1.36 and 1.399
z-score of fold change, 1448724_at Cish (LN, samples x1-x3, Modules 37): 1.476 and 1.357 and 1.106
z-score of fold change, 1451340_at Arid5a (LN, samples x1-x3, Modules 37): 1.5 and 1.292 and 1.161
z-score of fold change, 1453851_a_at Gadd45g (LN, samples x1-x3, Modules 37): 1.368 and 1.383 and 1.21
z-score of fold change, 1457404_at Nfkbiz (LN, samples x1-x3, Modules 37): 1.371 and 1.232 and 1.386
z-score of fold change, 1458589_at --- (LN, samples x1-x3, Modules 37): 1.137 and 1.339 and 1.469
z-score of fold change, 1422054_a_at 5kil (LN, samples x1-x3, Modules 40): 1.491 and 1.218 and 1.211
z-score of fold change, 1428735_at Cd69 (LN, samples x1-x3, Modules 40): 1.22 and 1.344 and 1.378
Adar 1425405_a_at (Group G1, Modules 20) (LV, sample x1): 1.58
Adar 1434268_at (Group G1, Modules 20) (LV, sample x1): 1.7
Ddx58 1436562_at (Group G1, Modules 20) (LV, sample x1): 0.94
Ddx58 1456890_at (Group G1, Modules 20) (LV, sample x1): 1.2
Eif2ak2 1422005_at (Group G1, Modules 20) (LV, sample x1): 1.02
G3bp2 1421323_a_at (Group G1, Modules 20) (LV, sample x1): 1.74
Gm9706///Isg15 1431591_s_at (Group G1, Modules 20) (LV, sample x1): 1.01
H2-T10///H2-T22///H2-T9 1449875_s_at (Group G1, Modules 20) (LV, sample x1): 1.07
Ifih1 1426276_at (Group G1, Modules 20) (LV, sample x1): 0.89
Ifit1 1450783_at (Group G1, Modules 20) (LV, sample x1): 2.21
Ifit3 1449025_at (Group G1, Modules 20) (LV, sample x1): 1.7
Irf7 1417244_a_at (Group G1, Modules 20) (LV, sample x1): 0.85
Irgm1 1418825_at (Group G1, Modules 20) (LV, sample x1): 1.33
Mndal 1426906_at (Group G1, Modules 20) (LV, sample x1): 1.77
Pml 1448757_at (Group G1, Modules 20) (LV, sample x1): 1.41
Pml 1456103_at (Group G1, Modules 20) (LV, sample x1): 1.31
